{"source": "the NIST ThermoML archive (doi:10.1021/je900436f)", "details": "298.15 K, Liquid", "note": "± gives the expanded uncertainty stated by the source.", "data": [{"smiles": "CCCCCC", "note": "[hexane]", "values": [{"measurement": "mass density", "setting": "20.22 kPa", "value": "654.96 ± 1.4", "unit": "kg/m3"}]}, {"smiles": "CCCCCl", "note": "[1-chlorobutane]", "values": [{"measurement": "mass density", "setting": "13.52 kPa", "value": "880.805 ± 0.6", "unit": "kg/m3"}]}, {"smiles": "CC(C)(C)O", "note": "[2-methylpropan-2-ol]", "values": [{"measurement": "mass density", "setting": "5.605 kPa", "value": "780.885 ± 0.75", "unit": "kg/m3"}]}, {"smiles": "CC(C)CO", "note": "[2-methyl-1-propanol]", "values": [{"measurement": "mass density", "setting": "1.535 kPa", "value": "797.775 ± 0.6", "unit": "kg/m3"}]}]}
